According to patent US20260166045A1, “COMBINATION THERAPY COMPRISING GSPT1-DIRECTED MOLECULAR GLUE DEGRADERS AND PI3K/AKT/mTOR PATHWAY INHIBITORS” (Monte Rosa Therapeutics, Inc., priority 2022, published 2026):

Assays:
CAL51 cell line = assay: CellTiter-Glo 2.0 cell viability, 7x7 combination dose response matrix, synergy scoring; assay type: cell-based
From the text: (§1) A study was undertaken to determine whether the combination of a GSPT1-directed MGD and an inhibitor of the PI3K/AKT/mTOR pathway could be effective in killing cancer cells and whether certain combination could elicit a greater than additive effect on cell killing.
(§2) FIG. 1 is a flow diagram of the method used to assess cancer cell killing by a combination of a GSPT1-directed MGD and an inhibitor of the PI3K/AKT/mTOR pathway. Certain of the materials and equipment used in the studies are presented in Table 3 and the cell lines used are presented in Table 4.
(§3) All assays were run in triplicate. Each 384-well plate accommodated six 7×7 dose response matrices (FIG. 2). All compound handling was performed using an Echo 650 Series Acoustic Liquid Handler, which enables fully automated, precise, contact-free acoustic transfer in volumes as low as 2.5 nL.
(§4) The following protocol was used for cell plating: • 1. Warm media to room temperature or 37° C. • 2. Prepare complete phenol-free media by adding 10% FBS+1% Pen-Strep to RPMI 1640 Medium or DMEM. • 3. Aspirate media from T175 tissue culture flask and rinse with 10 ml PBS. • 4. Aspirate PBS and add 2 mL 0.25% trypsin. Incubate the flask at 37° C. for 5 min or until cells are detached. • 5. Add 10 mL complete media to the flask to neutralize the trypsin, then collect cells in a 50 mL conical tube. • 6. Centrifuge cells at 300 g for 5 min. Aspirate media and suspend cell pellet in fresh media. Use cell strainer to strain cells into a new 50 mL conical tube. • 7. […] Mix 100 uL cell suspension with 100 uL trypan blue (1:1) and pipette 20 μL of the mixture into each of 2 counting chambers on a slide. Insert slide. • b. Adjust focus and record the live cell count. At least 2 independent measurements should be taken. […] Cell viability should be greater than 90%. […] Dilute cell suspension to the desired concentration (20000 cells/mL) using complete phenol-free media. Prepare 10 mL cell suspension per plate+an extra 10 mL for priming the liquid handler. • 9. Dispense cells into 384-well plates using the liquid handler at 25 uL/well (500 cells/well). 3 plates should be prepared per compound plate to be treated. • 10. Cells should be dispensed into columns 1-23 only. Media only (no cells) should be dispensed into column 24. • 11. Allow plates to rest at RT for 30 minutes before transferring to the incubator. Incubate cells overnight at 37° C., 95% humidity, and 5% CO2.
(§5) Compound plates were prepared as follows using an Echo 650 Series Acoustic Liquid Handler. • 1. A compound plate containing 7-point dose responses of each compound to be treated is first prepared from stock compounds. • 2. The cell plates are treated with compounds according to the following maps, where the first compound is added across all six 7 by 7 dose response matrices, and its concentration varies by row (FIG. 2; top matrix), whereas the second compound varies for each dose response matrix, and its concentration varies by column (FIG. 2; bottom matrix). Each cell plate receives one Compound A and six different Compound Bs. • 3. To prepare a compound plate, 384-well PP plate with stock compounds (highest concentration) is prepared. Compounds are diluted 1:1000 in the cell plates, e.g. 10 mM on compound plate will be 10 uM on cell plate. A 384-well LDV plate with pre-determined volumes of DMSO is prepared. Echo is used to dilute stock compounds from PP plate into LDV plate to prepare 7-point dose responses.
(§6) Compounds were added to the cells and cell viability was measured after 72 hour incubation using CellTiter-Glo 2.0 Cell Viability Assay (Promega): • 1. For a compound addition, Echo is used to transfer 25 nL from the compound plate wells to the cell plates according to the plate maps shown in FIG. 2. Cell plates are treated in triplicate. Each well of the cell plate has 25 uL media (1:1000 dilution). Incubate cells post-treatment at 37° C., 95% humidity, and 5% CO2 for 72 hrs (step 106). • 2. […]

MCF7 cell line = assay: as above; assay type: cell-based
From the text: as §1, §2, §3, §4, §5, §6

MDA-MB-231 cell line = assay: as above; assay type: cell-based; settings: MDA-MB-231; combined with M2698 41-10000 nM; first compound 0.41-100 nM
From the text: as §1, §2, §3, §4, §5, §6

MDA-MB-157 cell line = assay: as above; assay type: cell-based; settings: combined with M2698 41-10000 nM, first compound 0.41-100 nM
From the text: as §1, §2, §3, §4, §5, §6

WSU-DLCL2 cell line = assay: CTG viability, 11x11 concentration matrix, Loewe synergy (lymphoma); settings: inhibitor combined with compound 1-1, 11x11 matrix, 72 hours
Description: (§7) Cells were cultured in the media recommended by the supplier.
(§8) On the day before compound addition, cells were seeded in 384-well-plates (white with clear flat bottom) at the densities indicated in Table 6 in 40 μL of growth medium. The next day, compounds were dispensed from 10 mM stocks using a HP D300 dispenser according to the concentration matrices described above. For each cell line, the compound concentration matrices were dispensed twice as side-by-side duplicates on one 384-well-plate. In addition, each plate contained 14 wells with only growth medium and 44 wells with cells treated with DMSO alone to calculate the average background and maximal signals, respectively. The final DMSO concentration was normalized to 0.2% across the plates. Plates were then incubated for 72 hours. CellTiter-Glo® Luminescent Cell Viability Assay (CTG, Promega G7570) reagent was prepared according to the manufacturer's instructions. Plates were equilibrated to room temperature for approximately 30 minutes, 25 μL CTG reagent was added to each well and plates were mixed on an orbital shaker for 10 minutes to allow for cell lysis. After further incubation for 20 minutes at room temperature, the clear bottoms of the plates were pasted with white back seal and luminescence was read on an EnVision plate reader (measurement time 0.1 seconds).

RAJI cell line = assay: as above; settings: inhibitor combined with compound 1-1, 11x11 matrix, 72 hours
Description: as §7, §8

DOHH-2 cell line = assay: as above; settings: inhibitor combined with compound 1-1, 11x11 matrix, 72 hours
Description: as §7, §8

SU-DHL-6 cell line = assay: as above; settings: inhibitor combined with compound 1-1, 11x11 matrix, 72 hours
Description: as §7, §8

DB cell line = assay: as above; settings: inhibitor combined with compound 1-1, 11x11 matrix, 72 hours
Description: as §7, §8

[1] = CAL51, combined with Alpelisib 41-10000 nM, first compound 0.41-33.33 nM
[2] = CAL51, combined with M2698 41-10000 nM, first compound 0.41-100 nM
[3] = MCF7, combined with Alpelisib 41-10000 nM, first compound 0.41-33.33 nM
[4] = MCF7, combined with M2698 41-10000 nM, first compound 0.41-100 nM
[5] = CAL51, combined with Alpelisib 41-10000 nM, first compound 0.41-100 nM
[6] = CAL51, combined with Capivasertib 41-10000 nM, first compound 0.41-100 nM
[7] = CAL51, combined with GNE-477 41-10000 nM, first compound 0.41-100 nM
[8] = CAL51, combined with HS173 41-10000 nM, first compound 0.41-100 nM
[9] = CAL51, combined with Serabelisib 41-10000 nM, first compound 0.41-100 nM
[10] = MCF7, combined with Alpelisib 41-10000 nM, first compound 0.41-100 nM
[11] = MCF7, combined with Capivasertib 41-10000 nM, first compound 0.41-100 nM
[12] = MCF7, combined with GNE-477 41-10000 nM, first compound 0.41-100 nM
[13] = MCF7, combined with HS173 41-10000 nM, first compound 0.41-100 nM
[14] = MCF7, combined with Serabelisib 41-10000 nM, first compound 0.41-100 nM

## O=C1CCC(N2Cc3ccc(COC(=O)Nc4ccc(F)c(OC(F)(F)F)c4)cc3C2=O)C(=O)N1 (stereo not shown) [Compound 1-2, [2-(2,6-dioxopiperidin-3-yl)-3-oxo-2,3-dihydro-1H-isoindol-5-yl]methyl N-[4-fluoro-3-(trifluoromethoxy)phenyl]carbamate]
CAL51 cell line; [1]
  Mean Bliss synergy score: 13.24
  Mean Loewe synergy score: 10.04
CAL51 cell line; [2]
  Mean Bliss synergy score: 20.45
  Mean Loewe synergy score: 10.06
CAL51 cell line; combined with M2698 (41 nM to 10 uM), CAL51 cell line, mean across dose response matrix, 72 hrs
  Mean Bliss synergy score: 20.45
MCF7 cell line; [3]
  Mean Bliss synergy score: 14.93
  Mean Loewe synergy score: 11.94
MCF7 cell line; [4]
  Mean Bliss synergy score: 19.15
  Mean Loewe synergy score: 12.31
MDA-MB-231 cell line
  Mean Bliss synergy score: 1.26
  Mean Loewe synergy score: 3.82
MDA-MB-157 cell line
  Mean Bliss synergy score: 4.58
  Mean Loewe synergy score: 5.68

## O=C1CCC(N2Cc3ccc(COC(=O)Nc4ccc(F)c(OC(F)F)c4)cc3C2=O)C(=O)N1 (stereo not shown) [Compound 1-3, [2-(2,6-dioxopiperidin-3-yl)-3-oxo-2,3-dihydro-1H-isoindol-5-yl]methyl N-[3-(difluoromethoxy)-4-fluorophenyl]carbamate]
CAL51 cell line; [1]
  Mean Bliss synergy score: 13.63
  Mean Loewe synergy score: 8.54
CAL51 cell line; [2]
  Mean Bliss synergy score: 30.29
  Mean Loewe synergy score: 15.43
MCF7 cell line; [3]
  Mean Bliss synergy score: 17.71
  Mean Loewe synergy score: 10.32
MCF7 cell line; [4]
  Mean Bliss synergy score: 25.34
  Mean Loewe synergy score: 13.77
MCF7 cell line; combined with Alpelisib (41 nM to 10 uM), MCF7 cell line, mean across dose response matrix, 72 hrs
  Mean Bliss synergy score: 17.71
MDA-MB-231 cell line
  Mean Bliss synergy score: 5.67
  Mean Loewe synergy score: 4.75
MDA-MB-157 cell line
  Mean Bliss synergy score: 6.71
  Mean Loewe synergy score: 6.57

## Cc1cc(C)cc(NC(=O)OCc2ccc3c(c2)C(=O)N(C2CCC(=O)NC2=O)C3)c1 (stereo not shown) [Compound 1-4, [2-(2,6-dioxopiperidin-3-yl)-3-oxo-2,3-dihydro-1H-isoindol-5-yl]methyl N-(3,5-dimethylphenyl)carbamate]
CAL51 cell line; [1]
  Mean Bliss synergy score: 10.76
  Mean Loewe synergy score: 7.63
CAL51 cell line; [5]
  Mean Bliss synergy score: 36.63
  Mean Loewe synergy score: 11.29
CAL51 cell line; [6]
  Mean Bliss synergy score: 30.43
  Mean Loewe synergy score: 14.67
CAL51 cell line; [7]
  Mean Bliss synergy score: 15.82
  Mean Loewe synergy score: 6.64
CAL51 cell line; [8]
  Mean Bliss synergy score: 8.74
  Mean Loewe synergy score: 1.29
CAL51 cell line; [2]
  Mean Bliss synergy score: 16.31
  Mean Loewe synergy score: 8.47
CAL51 cell line; [9]
  Mean Bliss synergy score: 5.71
  Mean Loewe synergy score: −1.80
CAL51 cell line; combined with Alpelisib (41 nM to 10 uM), CAL51 cell line, mean across dose response matrix, 72 hrs
  Mean Bliss synergy score: 36.63
MCF7 cell line; [3]
  Mean Bliss synergy score: 9.41
  Mean Loewe synergy score: 7.90
MCF7 cell line; [10]
  Mean Bliss synergy score: 17.96
  Mean Loewe synergy score: 9.59
MCF7 cell line; [11]
  Mean Bliss synergy score: 17.17
  Mean Loewe synergy score: 9.85
MCF7 cell line; [12]
  Mean Bliss synergy score: 9.39
  Mean Loewe synergy score: 7.58
MCF7 cell line; [13]
  Mean Bliss synergy score: 3.51
  Mean Loewe synergy score: 1.27
MCF7 cell line; [4]
  Mean Bliss synergy score: 14.55
  Mean Loewe synergy score: 7.79
MCF7 cell line; [14]
  Mean Bliss synergy score: 4.26
  Mean Loewe synergy score: 1.36
MDA-MB-231 cell line
  Mean Bliss synergy score: 2.10
  Mean Loewe synergy score: 2.36
MDA-MB-157 cell line
  Mean Bliss synergy score: 4.94
  Mean Loewe synergy score: 5.54

## O=C1CCC(N2Cc3ccc(COC(=O)Nc4cccc(OC(F)(F)F)c4)cc3C2=O)C(=O)N1 (stereo not shown) [Compound 1-5, [2-(2,6-dioxopiperidin-3-yl)-3-oxo-2,3-dihydro-1H-isoindol-5-yl]methyl N-[3-(trifluoromethoxy)phenyl]carbamate]
CAL51 cell line; [1]
  Mean Bliss synergy score: −0.17
  Mean Loewe synergy score: 7.63
CAL51 cell line; [2]
  Mean Bliss synergy score: 7.95
  Mean Loewe synergy score: 11.33
MCF7 cell line; [3]
  Mean Bliss synergy score: −2.19
  Mean Loewe synergy score: 6.06
MCF7 cell line; [4]
  Mean Bliss synergy score: 5.35
  Mean Loewe synergy score: 12.24
MDA-MB-231 cell line
  Mean Bliss synergy score: 1.74
  Mean Loewe synergy score: 3.68
MDA-MB-157 cell line
  Mean Bliss synergy score: 2.85
  Mean Loewe synergy score: 4.08

## CC[C@H](Nc1ncnc2nc[nH]c12)c1nc2cccc(F)c2c(=O)n1-c1ccccc1 [idelalisib, 5-fluoro-3-phenyl-2-[(1S)-1-(7H-purin-6-ylamino)propyl]quinazolin-4-one]
WSU-DLCL2 cell line
  Mean Loewe synergy score, WSU-DLCL2: −2.08
RAJI cell line
  Mean Loewe synergy score, RAJI: 3.47
DOHH-2 cell line
  Mean Loewe synergy score, DOHH2: 4.04
SU-DHL-6 cell line
  Mean Loewe synergy score, SUDHL6: 5.75
DB cell line
  Mean Loewe synergy score, DB: −3.25
